These results are taken from patent publication US9511058B2, “Methods for using carboxamide, sulfonamide and amine compounds” (Rigel Pharmaceuticals, Inc., priority 2010, dated 2016).

The first experiment has as its target AMPK. Put plainly: AMPK activation, enzyme-linked immunosorbent assay. The class given is biochemical. The conditions noted are these: compounds of Table 1 (Table 6).
The EC50 is the concentration that produces a half-maximal response. Higher therefore signals weaker potency. On to `O=C(NC1CCN(Cc2ccc(C(F)(F)F)cc2)CC1)c1cc2cc(OC3CCN(c4ccc(C(F)(F)F)cc4)CC3)ccc2o1` [1-100, N-(1-(4-(trifluoromethyl)benzyl)piperidin-4-yl)-5-(1-(4-(trifluoromethyl)phenyl)piperidin-4-yloxy)benzofuran-2-carboxamide], for which the EC50 was < 100 nM.
Regarding `Cc1c(C(=O)NC2CCN(Cc3cccnc3)CC2)oc2cc(OC3CCN(c4ccc(C(F)(F)F)cc4)CC3)ccc12` [1-69, 3-methyl-N-(1-(pyridin-3-ylmethyl)piperidin-4-yl)-6-(1-(4-(trifluoromethyl)phenyl)piperidin-4-yloxy)benzofuran-2-carboxamide], the EC50 is < 100 nM.
Compound `CN(C(=O)c1cc2cc(OC3CCN(c4ccc(C(F)(F)F)cc4)CC3)ccc2o1)C1CCN(Cc2ccccc2C#N)CC1` [1-111, N-(1-(2-cyanobenzyl)piperidin-4-yl)-N-methyl-5-(1-(4-(trifluoromethyl)phenyl)piperidin-4-yloxy)benzofuran-2-carboxamide] had an EC50 of 100 to 500 nM.
On the same count and under the same terms, in the case of `O=C(NC1CCN(Cc2ccncc2)CC1)c1ccnc(OC2CCN(c3ccc(C(F)(F)F)cc3)CC2)c1` [1-20, N-(1-(pyridin-4-ylmethyl)piperidin-4-yl)-2-(1-(4-(trifluoromethyl)phenyl)piperidin-4-yloxy)isonicotinamide] it was 500 to 1000 nM; in that of `O=C(NC1CCN(Cc2ccncc2)CC1)c1cccc(OC2CCN(c3ccc(C(F)(F)F)cc3)CC2)n1` [1-43, N-(1-(pyridin-4-ylmethyl)piperidin-4-yl)-6-(1-(4-(trifluoromethyl)phenyl)piperidin-4-yloxy)picolinamide], 1000 to 5000 nM; in that of `O=C(N[C@H]1CCN(Cc2ccncc2)C1)c1ccc(OC2CCN(c3ccc(C(F)(F)F)cc3)CC2)cn1` [1-30, (S)-N-(1-(pyridin-4-ylmethyl)pyrrolidin-3-yl)-5-(1-(4-(trifluoromethyl)phenyl)piperidin-4-yloxy)picolinamide], < 100 nM.
The same measure, in the same setting: in the case of `O=C(NC1CCN(Cc2cncnc2)CC1)c1ccc(OC2CCN(c3ccc(C(F)(F)F)cc3)CC2)cn1` [1-44, N-(1-(pyrimidin-5-ylmethyl)piperidin-4-yl)-5-(1-(4-(trifluoromethyl)phenyl)piperidin-4-yloxy)picolinamide] it was 100 to 500 nM; in that of `CC(C)(C)OC(=O)N1CC[C@H](NC(=O)c2ccc(OC3CCN(c4ccc(C(F)(F)F)cc4)CC3)cn2)C1` [1-26, (S)-tert-butyl 3-(5-(1-(4-(trifluoromethyl)phenyl)piperidin-4-yloxy)picolinamido)pyrrolidine-1-carboxylate], 100 to 500 nM.
As to `N#Cc1cccc(CN2CCC(NS(=O)(=O)c3ccc(OC4CCN(c5ccc(C(F)(F)F)cc5)CC4)nc3)CC2)c1` [1-57, N-(1-(3-cyanobenzyl)piperidin-4-yl)-6-(1-(4-(trifluoromethyl)phenyl)piperidin-4-yloxy)pyridine-3-sulfonamide], the concentration for a half-maximal effect (EC50) lay within 500 to 1000 nM.
Take `O=C(NC1CCN(Cc2ccncc2)CC1)c1cc2cc(OC3CCN(c4ccc(C(F)(F)F)cc4)CC3)ccc2o1` [1-76, N-(1-(pyridin-4-ylmethyl)piperidin-4-yl)-5-(1-(4-(trifluoromethyl)phenyl)piperidin-4-yloxy)benzofuran-2-carboxamide]: the EC50 was in the range of 100 to 500 nM.
`N#Cc1ccc(CN2CCC(NS(=O)(=O)c3ccc(OC4CCN(c5ccc(C(F)(F)F)cc5)CC4)nc3)CC2)cc1` [1-56, N-(1-(4-cyanobenzyl)piperidin-4-yl)-6-(1-(4-(trifluoromethyl)phenyl)piperidin-4-yloxy)pyridine-3-sulfonamide]: the EC50 was in the range of 5000 to 10000 nM.
Still for that read-out and setting: in the case of `O=C(N[C@@H]1CCN(Cc2cccnc2)C1)c1cc2cc(OC3CCN(c4ccc(C(F)(F)F)cc4)CC3)ccc2o1` [1-123, (R)-N-(1-(pyridin-3-ylmethyl)pyrrolidin-3-yl)-5-(1-(4-(trifluoromethyl)phenyl)piperidin-4-yloxy)benzofuran-2-carboxamide] it was 100 to 500 nM; in that of `CC(C)(C)OC(=O)N1CCC(NC(=O)c2cc3cc(OC4CCN(Cc5ccc(C#N)cc5)CC4)ccc3o2)CC1` [1-113, tert-butyl 4-(5-(1-(4-cyanobenzyl)piperidin-4-yloxy)benzofuran-2-carboxamido)piperidine-1-carboxylate], 100 to 500 nM; in that of `O=C(NC1CCN(Cc2c[nH]cn2)CC1)c1ccc(OC2CCN(c3ccc(C(F)(F)F)cc3)CC2)cn1` [1-48, N-(1-((1H-imidazol-4-yl)methyl)piperidin-4-yl)-5-(1-(4-(trifluoromethyl)phenyl)piperidin-4-yloxy)picolinamide], 1000 to 5000 nM.

The experiment is the same for the next values; noted with them: compounds of Table 2 (Table 7).
On to `N#Cc1ccc(CN2CCC(NC(=O)c3ccc4[nH]c5c(c4c3)CN(Cc3ccc(F)cc3)CC5)CC2)cc1` [2-9, N-(1-(4-cyanobenzyl)piperidin-4-yl)-2-(4-fluorobenzyl)-2,3,4,5-tetrahydro-1H-pyrido[4,3-b]indole-8-carboxamide], for which the half-maximal effective concentration (EC50) was < 500 nM.
The same measure, in the same setting: in the case of `NC(=O)c1ccc(CN2CCc3[nH]c4ccc(C(=O)NC5CCN(Cc6ccc(C(F)(F)F)cc6)CC5)cc4c3C2)cc1` [2-47, 2-(4-carbamoylbenzyl)-N-(1-(4-(trifluoromethyl)benzyl)piperidin-4-yl)-2,3,4,5-tetrahydro-1H-pyrido[4,3-b]indole-8-carboxamide] it was 10000 to 50000 nM; in that of `CC(C)(C)OC(=O)N1CCC(NC(=O)c2ccc3[nH]c4c(c3c2)CN(c2ccc(F)cc2)CC4)CC1` [2-38, tert-butyl 4-(2-(4-fluorophenyl)-2,3,4,5-tetrahydro-1H-pyrido [4,3-b]indole-8-carboxamido)piperidine-1-carboxylate], 10000 to 50000 nM.

The same experiment, now with this note: compounds of Table 3 (Table 8).
`O=C(c1nc2ccc(OC3CCN(c4ccc(C(F)(F)F)cc4)CC3)cc2o1)N1CC2CC1CN2Cc1ccncc1` (stereo not drawn) [3-8, (5-(pyridin-4-ylmethyl)-2,5-diazabicyclo[2.2.1]heptan-2-yl)(6-(1-(4-(trifluoromethyl)phenyl)piperidin-4-yloxy)benzo[d]oxazol-2-yl)methanone] had an EC50 of 100 to 1000 nM.
On the same count and under the same terms, in the case of `O=C(NC1CCNCC1)c1nc2ccc(OC3CCN(c4ccc(C(F)(F)F)cc4)CC3)cc2o1` [3-5, N-(piperidin-4-yl)-6-(1-(4-(trifluoromethyl)phenyl)piperidin-4-yloxy)benzo[d]oxazole-2-carboxamide] it was 10000 to 100000 nM; in that of `N#Cc1ccc(CN2CCC(NC(=O)c3cnc(OC4CCN(c5ccc(C(F)(F)F)cc5)CC4)cn3)CC2)cc1` [3-22, N-(1-(4-cyanobenzyl)piperidin-4-yl)-5-(1-(4-(trifluoromethyl)phenyl)piperidin-4-yloxy)pyrazine-2-carboxamide], < 100 nM.

Staying with this experiment, now noted: compounds of Table 4 (Table 9).
In the case of `O=C(N[C@H]1CCN(Cc2ccc(F)cc2)C1)c1ccc(C(=O)N2CCN(c3ccc(Cl)cc3)CC2)cn1` [4-4, (S)-5-(4-(4-chlorophenyl)piperazine-1-carbonyl)-N-(1-(4-fluorobenzyl)pyrrolidin-3-yl)picolinamide], the concentration giving a half-maximal response (EC50) was 1000 to 5000 nM.

The same experiment, now with this note: compounds of Table 5 (Table 10).
As to `N#Cc1ccc(CN2CCC(Oc3ccc(C(=O)NC4CCN(Cc5ccccc5)CC4)c(Cl)c3)CC2)cc1` [5-51, N-(1-benzylpiperidin-4-yl)-2-chloro-4-(1-(4-cyanobenzyl)piperidin-4-yloxy)benzamide], the concentration giving a half-maximal response (EC50) was < 1000 nM.
Still for that read-out and setting: in the case of `O=C(NC1CCN(Cc2ccccc2)CC1)c1ccc(OC2CCN(c3ccc(C(F)(F)F)cc3)CC2)cc1Cl` [5-47, N-(1-benzylpiperidin-4-yl)-2-chloro-4-(1-(4-(trifluoromethyl)phenyl)piperidin-4-yloxy)benzamide] it was < 1000 nM.
The same measure, in the same setting: in the case of `O=C(NC1CCN(Cc2ccccc2)CC1)c1ccc(OC2CCN(Cc3ccc(Cl)c(Cl)c3)CC2)c(F)c1` [5-82, N-(1-benzylpiperidin-4-yl)-4-(1-(3,4-dichlorobenzyl)piperidin-4-yloxy)-3-fluorobenzamide] it was < 1000 nM; in that of `O=C(NC1CCN(Cc2ccccn2)CC1)c1ccc(OC2CCN(c3ccc(C(F)(F)F)cc3)CC2)c(F)c1` [5-32, 3-fluoro-N-(1-(pyridin-2-ylmethyl)piperidin-4-yl)-4-(1-(4-(trifluoromethyl)phenyl)piperidin-4-yloxy)benzamide], < 1000 nM.
The same measure, in the same setting: in the case of `N#Cc1ccc(CN2CCC(Oc3cccc(C(=O)NC4CCN(Cc5ccccc5)CC4)c3)CC2)cc1` [5-50, N-(1-benzylpiperidin-4-yl)-3-(1-(4-cyanobenzyl)piperidin-4-yloxy)benzamide] it was 1000 to 10000 nM.
In turn, `CC(C)(C)OC(=O)N1CCN(C(=O)c2ccc(OC3CCN(Cc4ccccc4)CC3)cc2)CC1` [5-99, tert-butyl 4-(4-(1-benzylpiperidin-4-yloxy)benzoyl)piperazine-1-carboxylate] showed an EC50 of 1000 to 10000 nM.
For the compound `N#Cc1ccc(CN2CCC(Oc3ccc(C(=O)NC4CCN(Cc5ccncc5)CC4)cc3)CC2)cc1` [5-83, 4-(1-(4-cyanobenzyl)piperidin-4-yloxy)-N-(1-(pyridin-4-ylmethyl)piperidin-4-yl)benzamide], the EC50 was < 1000 nM.
The same measure, in the same setting: in the case of `O=C(NC1CCN(Cc2ccccc2)CC1)c1ccc(OC2CCN(Cc3ccc(F)cc3)CC2)c(F)c1` [5-61, N-(1-benzylpiperidin-4-yl)-3-fluoro-4-(1-(4-fluorobenzyl)piperidin-4-yloxy)benzamide] it was < 1000 nM; in that of `O=C(NC1CCN(Cc2ccccc2)CC1)c1ccc(OC2CCN(Cc3ccncc3)CC2)c(F)c1` [5-37, N-(1-benzylpiperidin-4-yl)-3-fluoro-4-(1-(pyridin-4-ylmethyl)piperidin-4-yloxy)benzamide], < 1000 nM.
`Cc1ccc(CN2CCC(Oc3ccc(C(=O)NC4CCN(Cc5ccc(Cl)cc5)CC4)cc3F)CC2)cc1` [5-73, N-(1-(4-chlorobenzyl)piperidin-4-yl)-3-fluoro-4-(1-(4-methylbenzyl)piperidin-4-yloxy)benzamide]: the EC50 is < 1000 nM.
Consider `O=C(NC1CCN(Cc2ccccc2)CC1)c1ccc(OC2CCN(c3ccc(C(F)(F)F)cc3)CC2)c(F)c1` [5-23, N-(1-benzylpiperidin-4-yl)-3-fluoro-4-(1-(4-(trifluoromethyl)phenyl)piperidin-4-yloxy)benzamide], for which the EC50 is < 1000 nM.
As for `O=C(NC1CCN(Cc2ccccc2)CC1)c1ccc(OC2CCN(Cc3ccco3)CC2)cc1` [5-3, N-(1-benzylpiperidin-4-yl)-4-(1-(furan-2-ylmethyl)piperidin-4-yloxy)benzamide], the EC50 was 1000 to 10000 nM.
